Measured values as given in PubChem BioAssay (NCI).
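48-hour exposure; five concentrations; linearly interpolated endpoints. The concentration for 50% growth inhibition is given as GI50. The concentration for full growth arrest is given as TGI.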

Columns and labels:
Assay in all cases: NCI-60 cell line screen, 48 h
RXF 393 renal = system: RXF 393 renal
TK-10 renal = system: TK-10 renal
BT-549 breast = system: BT-549 breast
MDA-MB-231 breast = system: MDA-MB-231 breast
A498 renal = system: A498 renal
SNB-75 CNS = system: SNB-75 CNS
MDA-MB-435 = system: MDA-MB-435
M14 melanoma = system: M14 melanoma
DU-145 prostate = system: DU-145 prostate
NCI/ADR-RES ovarian = system: NCI/ADR-RES ovarian
NCI-H522 lung = system: NCI-H522 lung
UO-31 renal = system: UO-31 renal
PC-3 prostate = system: PC-3 prostate
HCT-15 colon = system: HCT-15 colon
KM12 colon = system: KM12 colon
SR leukemia = system: SR leukemia
MOLT-4 leukemia = system: MOLT-4 leukemia
SK-MEL-28 melanoma = system: SK-MEL-28 melanoma
NCI-H23 lung = system: NCI-H23 lung
HOP-62 NSCLC = system: HOP-62 NSCLC
HCT-116 colon = system: HCT-116 colon
HL-60(TB) leukemia = system: HL-60(TB) leukemia
SN12C renal = system: SN12C renal
CCRF-CEM leukemia = system: CCRF-CEM leukemia
IGROV1 ovarian = system: IGROV1 ovarian
HT29 colon = system: HT29 colon
OVCAR-8 ovarian = system: OVCAR-8 ovarian
K-562 leukemia = system: K-562 leukemia
SF-268 CNS = system: SF-268 CNS
MALME-3M melanoma = system: MALME-3M melanoma
SNB-19 CNS = system: SNB-19 CNS
SF-295 CNS = system: SF-295 CNS
A549 NSCLC = system: A549 NSCLC
U251 CNS = system: U251 CNS
HCC-2998 colon = system: HCC-2998 colon
LOX IMVI melanoma = system: LOX IMVI melanoma
SF-539 CNS = system: SF-539 CNS
T-47D breast = system: T-47D breast
786-0 renal = system: 786-0 renal
OVCAR-5 ovarian = system: OVCAR-5 ovarian
MCF7 breast = system: MCF7 breast
NCI-H460 lung = system: NCI-H460 lung
OVCAR-3 ovarian = system: OVCAR-3 ovarian
ACHN renal = system: ACHN renal
NCI-H226 lung = system: NCI-H226 lung
RPMI-8226 leukemia = system: RPMI-8226 leukemia
OVCAR-4 ovarian = system: OVCAR-4 ovarian
COLO 205 colon = system: COLO 205 colon
SK-OV-3 ovarian = system: SK-OV-3 ovarian
SK-MEL-5 melanoma = system: SK-MEL-5 melanoma
HOP-92 NSCLC = system: HOP-92 NSCLC
SK-MEL-2 melanoma = system: SK-MEL-2 melanoma
EKVX NSCLC = system: EKVX NSCLC
SW-620 colon = system: SW-620 colon
CAKI-1 renal = system: CAKI-1 renal
HS 578T breast = system: HS 578T breast
UACC-62 melanoma = system: UACC-62 melanoma

Nc1nc(OCc2cc(Br)cs2)c2[nH]cnc2n1
GI50 (RXF 393 renal): 14 µM
TGI (RXF 393 renal): 55.5 µM
GI50 (TK-10 renal): 10.2 µM
TGI (TK-10 renal): 62.9 µM
GI50 (BT-549 breast): 15.7 µM
TGI (BT-549 breast): 63.9 µM
GI50 (MDA-MB-231 breast): 27.8 µM
TGI (MDA-MB-231 breast): > 100 µM
GI50 (A498 renal): 11 µM
TGI (A498 renal): 48.3 µM
GI50 (SNB-75 CNS): 15.7 µM
TGI (SNB-75 CNS): 90.2 µM
GI50 (MDA-MB-435): 29.9 µM
TGI (MDA-MB-435): > 100 µM
GI50 (M14 melanoma): 26.7 µM
TGI (M14 melanoma): > 100 µM
GI50 (DU-145 prostate): 33 µM
TGI (DU-145 prostate): > 100 µM
GI50 (NCI/ADR-RES ovarian): 29.5 µM
TGI (NCI/ADR-RES ovarian): > 100 µM
GI50 (NCI-H522 lung): 26.8 µM
TGI (NCI-H522 lung): > 100 µM
GI50 (UO-31 renal): 11.1 µM
TGI (UO-31 renal): 60.4 µM
GI50 (PC-3 prostate): 21.8 µM
TGI (PC-3 prostate): > 100 µM
GI50 (HCT-15 colon): 18.4 µM
TGI (HCT-15 colon): > 100 µM
GI50 (KM12 colon): 23.2 µM
TGI (KM12 colon): > 100 µM
GI50 (SR leukemia): 29.5 µM
TGI (SR leukemia): > 100 µM
GI50 (MOLT-4 leukemia): 28.5 µM
TGI (MOLT-4 leukemia): > 100 µM
GI50 (SK-MEL-28 melanoma): 29.3 µM
TGI (SK-MEL-28 melanoma): > 100 µM
GI50 (NCI-H23 lung): 21.8 µM
TGI (NCI-H23 lung): > 100 µM
GI50 (HOP-62 NSCLC): 31.4 µM
TGI (HOP-62 NSCLC): > 100 µM
GI50 (HCT-116 colon): 19.9 µM
TGI (HCT-116 colon): > 100 µM
GI50 (HL-60(TB) leukemia): 27.9 µM
TGI (HL-60(TB) leukemia): > 100 µM
GI50 (SN12C renal): 29.6 µM
TGI (SN12C renal): > 100 µM
GI50 (CCRF-CEM leukemia): 37.5 µM
TGI (CCRF-CEM leukemia): > 100 µM
GI50 (IGROV1 ovarian): 14.5 µM
TGI (IGROV1 ovarian): 52.1 µM
GI50 (HT29 colon): 28.9 µM
TGI (HT29 colon): > 100 µM
GI50 (OVCAR-8 ovarian): 33.3 µM
TGI (OVCAR-8 ovarian): > 100 µM
GI50 (K-562 leukemia): 29.7 µM
TGI (K-562 leukemia): > 100 µM
GI50 (SF-268 CNS): 32.3 µM
TGI (SF-268 CNS): > 100 µM
GI50 (MALME-3M melanoma): 17.6 µM
TGI (MALME-3M melanoma): 97.5 µM
GI50 (SNB-19 CNS): 37.6 µM
TGI (SNB-19 CNS): > 100 µM
GI50 (SF-295 CNS): 25.9 µM
TGI (SF-295 CNS): > 100 µM
GI50 (A549 NSCLC): 32.9 µM
TGI (A549 NSCLC): > 100 µM
GI50 (U251 CNS): 28.8 µM
TGI (U251 CNS): > 100 µM
GI50 (HCC-2998 colon): 36.2 µM
TGI (HCC-2998 colon): > 100 µM
GI50 (LOX IMVI melanoma): 25.3 µM
TGI (LOX IMVI melanoma): 98.1 µM
GI50 (SF-539 CNS): 18.2 µM
TGI (SF-539 CNS): 62.6 µM
GI50 (T-47D breast): 17.5 µM
TGI (T-47D breast): 87.5 µM
GI50 (786-0 renal): 22.2 µM
TGI (786-0 renal): > 100 µM
GI50 (OVCAR-5 ovarian): 29.8 µM
TGI (OVCAR-5 ovarian): > 100 µM
GI50 (MCF7 breast): 25.7 µM
TGI (MCF7 breast): > 100 µM
GI50 (NCI-H460 lung): 25 µM
TGI (NCI-H460 lung): > 100 µM
GI50 (OVCAR-3 ovarian): 28.1 µM
TGI (OVCAR-3 ovarian): > 100 µM
GI50 (ACHN renal): 13.7 µM
TGI (ACHN renal): 52 µM
GI50 (NCI-H226 lung): 24.6 µM
TGI (NCI-H226 lung): > 100 µM
GI50 (RPMI-8226 leukemia): 19.1 µM
TGI (RPMI-8226 leukemia): > 100 µM
GI50 (OVCAR-4 ovarian): 24.9 µM
TGI (OVCAR-4 ovarian): > 100 µM
GI50 (COLO 205 colon): 34 µM
TGI (COLO 205 colon): > 100 µM
GI50 (SK-OV-3 ovarian): 21.1 µM
TGI (SK-OV-3 ovarian): 57.8 µM
GI50 (SK-MEL-5 melanoma): 15.9 µM
TGI (SK-MEL-5 melanoma): 39.6 µM
GI50 (HOP-92 NSCLC): 3.11 µM
TGI (HOP-92 NSCLC): 37 µM
GI50 (SK-MEL-2 melanoma): 28.8 µM
TGI (SK-MEL-2 melanoma): 81.3 µM
GI50 (EKVX NSCLC): 24.7 µM
TGI (EKVX NSCLC): > 100 µM
GI50 (SW-620 colon): 40.2 µM
TGI (SW-620 colon): > 100 µM
GI50 (CAKI-1 renal): 9.94 µM
TGI (CAKI-1 renal): 79.6 µM
GI50 (HS 578T breast): 25.6 µM
TGI (HS 578T breast): 83.7 µM
GI50 (UACC-62 melanoma): 16.3 µM
TGI (UACC-62 melanoma): 59.7 µM
